Entries after “also recorded” stand apart in the source; their conditions may differ.
Tests used:
IDO1 = target: T1, IDO1 (Homo sapiens, UniProt P14902); assay: IDO1 cellular activity assay (IFNγ-stimulated SKOV3 cells); type: cell-based; settings: IFNγ 50 ng/ml, 24 h
T1 construct: SKOV3 cells treated with IFNγ to induce IDO expression; endogenous in cells; host or cells: SKOV3 cells (NCI No. 0503405), IFNγ-stimulated
Description: A cellular assay similar to the TDO2 assay was used to measure IDO1 inhibition in SKOV3 cells.
SKOV3 cells (source: National Cancer Institute (NCI), No. 0503405) which upregulate IDO1 after stimulation with IFNγ were used to measure compounds for IDO1 inhibitory activity. SKOV3 cells were routinely maintained in RPMI 90% (v/v), FCS 10% (v/v), Penicilin/streptomycin 1% (v/v). SKOV3 cells were seeded in 384 well plates at a density of 8000 cells in 45 µl per well or 4000 cells in 45 µl per well, respectively. Plates were incubated at 37 °C / 5% CO2 for 24 h. On the next day, 10 µl compound in serial dilutions (tested concentration range 10 µM-0.5 nM) and 200 µM L-tryptophan were added as well as IFNγ at a final concentration of 50 ng/ml. After 24 h of incubation at 37 °C / 5% CO2, 3 µl of the supernatant per well was transferred to 25 µl H2O per well in a 384 deep well plate and 25 µl of the supernatant per well was transferred to waste. The SKOV3 cell plates with 25 µl supernatant per well remaining were used to measure viability (see below). […] NFK and kynurenine (KYN) were quantified by LCMS, normalized to the internal standard L-tryptophan-(indole-d5) and the sum was calculated. […] For each compound concentration the percentage of activity compared to 0% and 100% effect was calculated as average ± STDEV (each concentration measured in duplicate). […]

holo-TDO2 = target: T2, holo-TDO2 (Homo sapiens, UniProt P48775); assay: Heme competition by holo-TDO2 UV-VIS absorbance (Soret band); type: binding; settings: 5 µM holo-TDO2, 20 µM inhibitor, 37 °C, up to 6 h
T2 construct: a construct encoding amino acids 19–406 of human TDO2 with an N-terminal six histidine tag; His6 (N); PreScission protease cleavage site (linker) (N); made in house; host or cells: E. coli BL21(DE3)
Description: To explore whether the identified apo-binders could compete with heme-binding to TDO2, a UV-visible absorption spectrum of holo-TDO2 was measured in the absence or presence of compounds. […] A shifted Soret peak can indicate a heme protein-ligand interaction, and a reduced intensity indicates loss of protein bound heme (although free heme also absorbs with a peak at approximately 400 nm, it is very poorly soluble).
Fig. 2 The UV-VIS absorption spectrum of holo-TDO2 in the presence of Cpd-1 (A) or Cpd-2 (B) or the vehicle control. […] The increase of absorbance at 280 nm of holo-TDO2 in the presence of Cpd-1 or Cpd-2 compared to the vehicle control is likely due to compound absorbance at this wavelength.
A UV − visible spectra study was performed to evaluate the binding of the compounds. The holo-TDO2 absorbance spectra were measured using a BioTek Synergy multimode reader (Agilent) for wavelengths from 250 to 600 nm in 1 nm increments. 5 µM holo-TDO2 was incubated at 37 °C with 20 µM compounds or DMSO in phosphate buffer supplemented with 0.01% Tween-20 in a 96 well UV compatible plate (Corning #3679) and absorbance was measured before (t = 0 h) and after 2–6 h of incubation.

T2 sequence (P48775 19-406): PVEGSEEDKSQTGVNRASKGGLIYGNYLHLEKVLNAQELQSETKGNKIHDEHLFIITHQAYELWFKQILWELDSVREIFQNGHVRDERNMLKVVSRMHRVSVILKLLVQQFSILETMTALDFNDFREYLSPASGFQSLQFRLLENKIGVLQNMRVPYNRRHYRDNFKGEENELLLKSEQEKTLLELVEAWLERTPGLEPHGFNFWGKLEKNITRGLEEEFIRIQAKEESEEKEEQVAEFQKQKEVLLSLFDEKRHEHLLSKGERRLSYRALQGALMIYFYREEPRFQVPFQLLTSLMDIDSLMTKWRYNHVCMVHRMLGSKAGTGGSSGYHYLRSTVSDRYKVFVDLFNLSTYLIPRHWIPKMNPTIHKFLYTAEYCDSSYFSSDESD
T1 sequence (P14902 whole entry): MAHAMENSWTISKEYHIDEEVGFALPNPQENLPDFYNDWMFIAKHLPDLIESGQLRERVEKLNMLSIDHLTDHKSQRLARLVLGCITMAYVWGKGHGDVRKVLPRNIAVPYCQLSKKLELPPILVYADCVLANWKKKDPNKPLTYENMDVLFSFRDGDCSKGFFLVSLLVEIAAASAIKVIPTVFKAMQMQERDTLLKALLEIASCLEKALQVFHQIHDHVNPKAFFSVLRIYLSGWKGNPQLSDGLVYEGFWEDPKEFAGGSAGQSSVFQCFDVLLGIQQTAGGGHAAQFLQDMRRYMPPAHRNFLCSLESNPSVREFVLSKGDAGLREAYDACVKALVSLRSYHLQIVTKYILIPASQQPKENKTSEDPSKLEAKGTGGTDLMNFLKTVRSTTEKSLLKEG

| Structure (SMILES) | IC50 (IDO1) [µM] | Soret band (405 nm) intensity of holo-TDO2 absorption spectrum (holo-TDO2) |
| --- | --- | --- |
| CCOC(=O)c1c(OC)nc2n(c1=O)CCCC2N(C(=O)Nc1ccccc1C(C)C)[C@@H](C)c1ccccc1 (mixture of isomers) [Cpd-2, ethyl 9-(3-(2-isopropylphenyl)-1-((S)-1-phenylethyl)ureido)-2-methoxy-4-oxo-6,7,8,9-tetrahydro-4H-pyrido[1,2-a]pyrimidine-3-carboxylate] | > 10 | clear time-dependent reduction in the Soret band intensity; also recorded: reduction of the absorbance peak at 405 nm |
| CCCc1ccccc1NC(=O)N(C(C)c1ccccc1)C1CCCn2c1nc(OC)c(C(=O)OCC)c2=O (stereo not shown) [Cpd-1, ethyl 9-(3-(2-propylphenyl)-1-(1-phenylethyl)ureido)-2-methoxy-4-oxo-6,7,8,9-tetrahydro-4H-pyrido[1,2-a]pyrimidine-3-carboxylate] | 5.7 | clear time-dependent reduction in the Soret band intensity; also recorded: reduction of the absorbance peak at 405 nm |
